# From US4966962A, “Reverse analogue of actinomycin D” (Trustees of Boston University, priority 1988, dated 1990)
# Columns and labels:
# [1] = Maximum tolerated dose (LD10) in tumor-free male mice; settings: ip days 1, 5, 9; deaths observed during 21 days; from plot of log dose vs percent mortality
# Experimental: The analogues were also tested in tumor-free male mice for their LD10 values (Table XIV). The animals were given a broad range of doses (ip) on days 1, 5, and 9. The maximum tolerated doses of AMD and the analogues that caused death in only 10% of the tested animals in 21 days (i.e., LD10) were recorded as MTD. […] On the basis of these values, the calculated therapeutic index values of SAD is 96, and those of RAD I, II, and III are 60, 67, and 70, respectively.
# control in P388 tumor bearing mice. ^c MTD (maximum tolerated dose) i
# the lethal dose (milligram/kilogram) for 10% normal BDF1 male mice
# days). Values were calculated from a plot of log dose vs percent
# [2] = test system: B16 melanoma; assay: In vivo antitumor activity against B16 melanoma; design: species or system BDF1 mice
# Experimental: ^a 0.2 mL of 1:5 (weight/volume) brei of B16 melanoma implanted
# ip on day 0 in groups of nine BDF1 mice. Drugs administered ip^b
# MST (range), median survival time in days (range of days for death of
# individual animal). ^c % ILS (surv), percent increase in life span
# (survivors on day 65/total injected).
# [3] = test system: P388 Leukemia; assay: Minimum effective dose in P388 tumor bearing mice; assay type: in vivo
# Excerpt: ^a Drugs administered ip once on days 1, 5, and 9 starting 1 day afte
# tumor implantation. Determinations were made from analysis of plotted
# logdose response data. ^b MED (minimum effective dose) is the dose
# (milligram/killogram) providing an increase in life span of 45% over
# [4] = test system: mammary MX-1; assay: Treatment of mammary MX-1 tumor; assay type: in vivo; settings: at 60 mg/kg
# [5] = test system: lung LX-1; assay: Treatment of lung LX-1 tumor; assay type: in vivo; settings: at 60 mg/kg
# [6] = Toxic deaths in nontumored mice treated in parallel (colon 38 experiment); assay type: in vivo
# Excerpt: × 100; in parenthesis, number of over 100 day survivors/number of
# mice in a group of nontumored mice treated in parallel with the
# tumorbearing mice and observed for 100 days.
# [7] = test system: CX-1 human colon adenocarcinoma; assay: Chemotherapy of human colon CX-1 tumor heterotransplanted in nude mice; assay type: in vivo, human tumor in athymic mice; settings: for % T/C, optimal: TST 15, observed day 22
# Experimental: Tables XI and XII show the effectiveness of SAD (2) and RAD (3b and 3c) against CX-1 human colon adenocarcinoma heterotransplanted into athymic mice, with three iv treatments with drugs on a weekly schedule starting on the 15th day of tumor transplant. AMD and the analogues were tested at doses of 45 and 60 ug/kg.
# ^a -, % T/C high than 50%; ±, % T/C close to 50%; +, % T/C from 50
# to 35%; ++, % T/C from 35% to 20%; +++, % T/C lower than 20%; ++++,
# regression of the tumor to a volume lower than 10% of the volume at the
# start of treatment. ^b Statistically significant as evaluated by the
# ^a Intravenous treatment, once a week for three weeks; eight mice per
# group. ^b TST; number of days between tumor transplant and starting o
# treatment. ^c Numbers in parentheses; day of observation after the […]
# [8] = test system: colon 38 adenocarcinoma; assay: Activity against advanced colon carcinoma C38 tumor; assay type: in vivo, CDF1 mice; settings: for % inhibn of tumor: tumors measured day 21
# Experimental: In view of favorable activity agianst colon 26 carcinoma, further experiments using the active analogues were carried out on the advanced colon adenocarcinomas of mouse colon 38. […] The superiority of RAD III and SAD over AMD in inhibiting colon 38 carcinoma is evident from the data of both tumor weight inhibition and increases in survival time of the treated over nontreated mice and the larger number of long-term survivors produced by these analogues.
# ^a CDF1 mice were injected sc with colon 38 adenocarcinoma
# fragments (70 mg) and treated with drugs with iv injections on day 1, 5,
# and 9 following tumor imoplantation on day 0. ^b [100 (tumor weight o
# treated mice/tumor weight of untreated mice)] × 100; data pooled
# from two experiments, tumors measured on day 21 after implantation ^c
# (Median survival time of treated mice/median survival of untreated mice)
# × 100; in parenthesis, number of over 100 day survivors/number of […]
# [9] = test system: P388/S (adriamycin sensitive) leukemia; assay: Antitumor activity in vivo, P388/S leukemia; design: species or system mice; settings: P388/S, at optimal dose, ip days 1, 5, 9
# Experimental: The analogues were tested for their antitumor activities in P388 lymphocytic leukemia in male BDF1 mice.
# ^a Male CDF1 mic inoculated ip: 10^6 cells inoculum, day 0.
# Drugs administered in 10% dimethyl sulfoxidesaline on days 1, 5, and 9. %
# ILS = percent increase in life span. Fractions in parentheses = tumor fre
# survivors/total on day 60^b. P388/S (adriamycin sensitive) and
# P388/ADR (adriamycin resistant) tumors were evaluated in the same
# experiment with agent listed.
# [10] = test system: P388/ADR (adriamycin resistant) leukemia; assay: Antitumor activity in vivo, P388/ADR leukemia; design: species or system mice; settings: at optimal dose, ip days 1, 5, 9
# Experimental: The analogues were also tested against P388/ADR murine leukemia following the standard protocol (Table VI).
# ILS = percent increase in life span.
# [11] = test system: supercoiled closed-circular pBR322 DNA; assay: Cleavage of closed circular pBR322 DNA; assay type: biochemical; settings: 20° C., 1 h, Na2S2O4, FeCl2
# Experimental: The cleavage of DNA was followed by monitoring of the conversion of supercoiled closed-circular pBR322 DNA to open-circular DNA (analyzed by agarose gel electrophoresis and quantitated by staining with 0.5 ug/mL of ethidium bromide for 30 min and densitometry; (Table II). SAD and RAD show strong DNA-cleaving ability in the presence of sodium hydrosulfite and ferrous chloride. Presumably, sodium hydrosulfite acts as a reducing agent and regenerates Fe(II) from Fe(III) to produce a continuous source of the active metal ion. When the DNA-cleaving reaction with the analogues was performed at 20° C., the ratio of cleaved DNA (open circular form DNA versus closed circular DNA) was almost maximum within 1 h. […] Cleavage of DNA by the analogues is aided by the actinomycin chromopeptide moiety, which acts as a site-specific binder to DNA, and is effected by the aminoquinone function which is chelated to the ferrous ion during the process, and this is the likely candidate which generates the radical species.
# Plasmid DNA pBR322 (0.5 ug) was dissolved in /8 μL of a reaction buffer (5 mM […], 10 mM Tris-HCl). To this solution, 1 μL of the 10 mM aqueous solution of the agent containing 1 mM FeCl2 was added. The mixture was incubated for 0.5-2 h at 20° or 37° C. Then, the incubation mixture was mixed with 10 uL of sample loading buffer (50% glycerin in 2 X Boyer's buffer containing 0.01% bromophenol blue). Finally, 5 uL of the mixture was analyzed by 0.7% agarose gel electrophoresis (120 V, Boyer's buffer; the migration distance of bromophenol blue was 5.0 cm). The gel was stained with […] of ethidium bromide and then quantitated by densitometry.
# ^a Ten microliters of 200 u M pBR322 DNA nucelotides in UM 10 mM
# TrisHCl (pH 7.8) and 50 mM NaCl, containing 4 mM Na2 --S2
# O4 and 100 μM FeCl2, was incubated with drug concentration a
# 20° C. for 1 h; the reaction mixture was kept saturated with air
# throughout the incubation period.
# ^b Percentage of DNA was calculated from the amounts of openand
# closedcir- cular DNA in the incubation mixture.
# [12] = at optimal dose, ip days 1, 5, 9
compound,measurement,setting,value
Cc1nc2c(C(=O)N[C@@H]3C(=O)N[C@H](C(C)C)C(=O)N4CCC[C@H]4C(=O)N(C)CC(=O)N(C)[C@@H](C(C)C)C(=O)O[C@@H]3C)c3nc4c(C(=O)N[C@@H]5C(=O)N[C@H](C(C)C)C(=O)N6CCC[C@H]6C(=O)N(C)CC(=O)N(C)[C@@H](C(C)C)C(=O)O[C@@H]5C)c(N)c(=O)c(C)c-4oc3c(C)c2o1 [RAD I (3a)],"MTD (maximum tolerated dose), lethal dose for 10% of normal mice (LD10)",[1],1.80 milligram/kilogram
same,% ILS,[2]; [12],124%
same,survivors on day 65/total injected,[2]; [12],6/9
same,"MST (range), median survival time","[2]; at optimal dose, ip days 1, 5, 9, range of days of death",65(55-62) days
same,optimal dose,"[2]; ip, days 1, 5, 9",300 μg/kg per inj
same,therapeutic index MTD/MED,[3]; MTD in normal BDF1 mice / MED in P388 tumor bearing mice,60
same,"MED (minimum effective dose), dose giving 45% increase in life span over control","[3]; ip once on days 1, 5, and 9, from plotted log-dose response data",0.03 milligram/killogram
COc1cccc2c1C(=O)c1c(O)c3c(c(O)c1C2=O)C[C@@](O)(C(=O)CO)C[C@@H]3O[C@H]1C[C@H](N)[C@H](O)[C@H](C)O1 [adriamycin],response of mammary MX-1 to treatment,[4],some positive response
same,response of lung LX-1 to treatment,[5],some positive response
same,toxic deaths,"[6]; dose 2.0 mg/kg iv days 1, 5, 9",0/9
same,toxic deaths,"[6]; dose 3.0 mg/kg iv days 1, 5, 9",0/9
same,toxic deaths,"[6]; dose 4.0 mg/kg iv days 1, 5, 9",3/9
same,toxic deaths,"[6]; dose 5.0 mg/kg iv days 1, 5, 9",8/9
same,"% T/C, optimal",[7]; dose 6 × 10^3 μg/kg iv once a week for three weeks,38%
same,"% T/C, optimal",[7]; dose 10 × 10^3 μg/kg iv once a week for three weeks,39%
same,response of CX-1 tumor to treatment (in words),"[7]; three iv treatments weekly from 15th day of transplant, at the doses tested",ineffective
same,% T/C (median survival time),"[8]; dose 2.0 mg/kg iv days 1, 5, 9",103%
same,% inhibn of tumor,"[8]; dose 2.0 mg/kg iv days 1, 5, 9",29%
same,% T/C (median survival time),"[8]; dose 3.0 mg/kg iv days 1, 5, 9",98%
same,% inhibn of tumor,"[8]; dose 3.0 mg/kg iv days 1, 5, 9",70%
same,% T/C (median survival time),"[8]; dose 4.0 mg/kg iv days 1, 5, 9",250%
same,over 100 day survivors/number of mice,"[8]; dose 4.0 mg/kg iv days 1, 5, 9",5/9
same,% inhibn of tumor,"[8]; dose 4.0 mg/kg iv days 1, 5, 9",93%
same,tumor free survivors/total on day 60,[9],1/8
CO[C@@]12[C@H](COC(N)=O)C3=C(C(=O)C(C)=C(N)C3=O)N1C[C@@H]1N[C@@H]12 [mitomycin C],tumor free survivors/total on day 60,[10],5/8
same,tumor free survivors/total on day 60,[9],1/8
bleomycin [BLM (bleomycin)],Percentage of closed circular pBR322 DNA cleaved,[11],55%
same,Percentage of closed circular pBR322 DNA cleaved,[11]; concn 50 M (so in the source),75%
same,Percentage of closed circular pBR322 DNA cleaved,[11]; concn 100 M (so in the source),85%
